Molecular target: ALK kinase (Homo sapiens, UniProt Q9UM73)
Test: Test to measure ALK kinase inhibition (GST-PLCγ1 substrate, anti-phosphotyrosine ELISA, luminescence)
Format: biochemical
Conditions: ALK kinase 180 ng/ml, 250 μM ATP, 30 minutes at 30° C.
Description: Test to Measure ALK Kinase Inhibition
A ViewPlate (Packard) is incubated with the GST-PLCγ1 substrate (purified recombinant form) at 0.1 mg/ml in phosphate buffer (PBS pH 7.4)(100 μl/well) for one hour under shaking. The plate is then saturated with a blocking solution containing 5% bovine serum albumin (BSA) (SIGMA) in PBS buffer pH 7.4.
After adding the inhibitor at the desired final concentration (usual range of 30 μM to 10 nM), the reaction is conducted by adding the ALK kinase at 180 ng/ml in 13 mM Tris reaction buffer pH 7.5 (SIGMA); 6.5 mM MgCl2 (MERCK); 0.65 mM DiThioThreitol (DTT) (ACROS); 39 mM sodium β-glycerophosphate (TCI); 0.65 mM sodium orthovanadate (SIGMA) and 250 μM ATP (SIGMA). Incubation is carried out for 30 minutes at 30° C. under shaking.
After three washings under shaking in 0.1% PBS/Tween-20 buffer (SIGMA), an anti-phosphotyrosine antibody coupled with HRP (UBI) diluted to 1/1000th in PBS/BSA buffer 5 mg/ml, is incubated for one hour under shaking. After three further washings in 0.1% PBS/Tween-20, the wells are incubated two minutes with 100 μl of SuperSignal ELISA mixture (PIERCE).
The signal is read in luminescent mode using a luminometer (MOLECULAR DEVICES SpectraMax M5e).

Chain of ALK kinase (Q9UM73 19-1620): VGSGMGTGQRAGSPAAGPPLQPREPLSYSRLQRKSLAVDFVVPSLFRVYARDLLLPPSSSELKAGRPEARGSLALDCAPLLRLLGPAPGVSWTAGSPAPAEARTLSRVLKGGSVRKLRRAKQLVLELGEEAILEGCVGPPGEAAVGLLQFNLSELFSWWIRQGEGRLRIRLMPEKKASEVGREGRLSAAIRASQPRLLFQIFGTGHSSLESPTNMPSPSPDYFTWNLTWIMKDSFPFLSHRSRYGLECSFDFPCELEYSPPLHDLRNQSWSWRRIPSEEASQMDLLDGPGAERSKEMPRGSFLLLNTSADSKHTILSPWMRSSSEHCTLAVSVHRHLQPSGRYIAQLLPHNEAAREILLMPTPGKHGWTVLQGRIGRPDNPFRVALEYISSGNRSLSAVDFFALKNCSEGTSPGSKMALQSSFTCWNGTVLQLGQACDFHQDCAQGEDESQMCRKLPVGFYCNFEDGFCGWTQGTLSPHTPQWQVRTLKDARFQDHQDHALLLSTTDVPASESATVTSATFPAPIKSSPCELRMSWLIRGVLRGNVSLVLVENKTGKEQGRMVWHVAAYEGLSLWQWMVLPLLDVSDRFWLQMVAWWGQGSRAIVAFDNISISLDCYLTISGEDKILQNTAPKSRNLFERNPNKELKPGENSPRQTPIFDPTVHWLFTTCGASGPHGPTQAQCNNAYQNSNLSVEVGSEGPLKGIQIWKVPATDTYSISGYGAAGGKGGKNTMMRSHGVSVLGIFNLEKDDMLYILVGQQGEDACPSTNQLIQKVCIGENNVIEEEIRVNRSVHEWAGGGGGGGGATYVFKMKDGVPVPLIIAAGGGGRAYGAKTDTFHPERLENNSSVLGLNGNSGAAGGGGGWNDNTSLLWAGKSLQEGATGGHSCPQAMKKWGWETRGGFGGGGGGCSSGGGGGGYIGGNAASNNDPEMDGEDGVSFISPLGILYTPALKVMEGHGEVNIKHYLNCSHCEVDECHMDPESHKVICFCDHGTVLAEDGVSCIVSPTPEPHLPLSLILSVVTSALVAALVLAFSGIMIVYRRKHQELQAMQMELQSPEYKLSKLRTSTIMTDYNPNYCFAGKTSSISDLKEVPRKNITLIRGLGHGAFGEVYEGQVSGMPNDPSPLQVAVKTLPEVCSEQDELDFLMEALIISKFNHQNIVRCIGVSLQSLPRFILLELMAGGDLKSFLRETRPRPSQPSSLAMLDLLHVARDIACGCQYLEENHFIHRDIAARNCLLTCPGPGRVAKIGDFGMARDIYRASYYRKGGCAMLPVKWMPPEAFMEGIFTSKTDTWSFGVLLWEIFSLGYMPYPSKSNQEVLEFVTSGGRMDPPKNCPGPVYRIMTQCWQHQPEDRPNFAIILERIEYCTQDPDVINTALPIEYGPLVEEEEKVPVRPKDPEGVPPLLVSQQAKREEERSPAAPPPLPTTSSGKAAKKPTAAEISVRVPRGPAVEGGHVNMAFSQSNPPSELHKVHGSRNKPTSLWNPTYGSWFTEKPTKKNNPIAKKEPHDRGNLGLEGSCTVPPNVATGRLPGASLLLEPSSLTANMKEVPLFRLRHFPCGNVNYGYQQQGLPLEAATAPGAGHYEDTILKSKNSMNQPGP

Row | IC50 | Structure (SMILES)
1 | 100 to 1000 nM | N#Cc1c(-c2ccc(O)cc2)nc2[nH]ncc2c1-c1ccc(O)cc1 [Compound 17]
2 | 100 to 1000 nM | Cc1n[nH]c2nc(-c3ccc(O)cc3)c(C#N)c(-c3ccc(O)cc3)c12 [Compound 19]
3 | < 100 nM | N#Cc1c(-c2ccc(O)cc2)nc2[nH]ncc2c1-c1ccco1 [Compound 44]
4 | 100 to 1000 nM | N#Cc1c(-c2ccc(O)cc2)nc2[nH]ncc2c1-c1ccoc1 [Compound 45]
5 | 1000 to 10000 nM | CN1CCN(Cc2ccc(-c3c(C#N)c(-c4ccc(O)cc4)nc4[nH]ncc34)cc2)CC1 [Compound 47]
6 | 100 to 1000 nM | N#Cc1c(-c2ccc(O)cc2)nc2[nH]ncc2c1-c1nccs1 [Compound 48]
7 | 100 to 1000 nM | N#Cc1c(-c2ccc(O)cc2)nc2[nH]ncc2c1-c1ccsc1 [Compound 50]
8 | 100 to 1000 nM | N#Cc1c(-c2ccc(O)cc2)nc2[nH]ncc2c1-c1cccs1 [Compound 52]
9 | 100 to 1000 nM | N#Cc1c(-c2ccc(O)cc2)nc2[nH]ncc2c1-c1ccc(CN)cc1 [Compound 53]
10 | 1000 to 10000 nM | N#Cc1c(-c2ccc(O)cc2)nc2[nH]ncc2c1-c1ccc(Cn2ccnc2)cc1 [Compound 54]
11 | 100 to 1000 nM | N#Cc1c(-c2ccc(O)cc2)nc2[nH]ncc2c1-c1ccc(N2CCNCC2)cc1 [Compound 59]
12 | 100 to 1000 nM | N#Cc1c(-c2ccc(O)cc2)nc2[nH]ncc2c1-c1cccc(N2CCNCC2)c1 [Compound 68]
13 | 100 to 1000 nM | N#Cc1c(-c2ccc(O)cc2)nc2[nH]ncc2c1-c1ccc(OCCN2CCOCC2)cc1 [Compound 73]
14 | 100 to 1000 nM | COc1cc(-c2cc3[nH]ncc3c(-c3ccco3)c2C#N)ccc1O [Compound 74]
15 | < 100 nM | N#Cc1c(-c2ccc(O)cc2F)nc2[nH]ncc2c1-c1ccco1 [Compound 75]
16 | 100 to 1000 nM | N#Cc1c(-c2ccc(O)c(F)c2)cc2[nH]ncc2c1-c1ccco1 [Compound 76]
17 | 100 to 1000 nM | N#Cc1c(-c2ccc(O)cc2F)nc2[nH]ncc2c1-c1ccc(CO)o1 [Compound 77]
18 | 100 to 1000 nM | Cc1n[nH]c2nc(-c3ccc(O)cc3)c(C#N)c(-c3ccco3)c12 [Compound 78]
19 | 100 to 1000 nM | Cc1n[nH]c2cc(-c3ccc(O)cc3F)c(C#N)c(-c3ccc(CN)o3)c12 [Compound 80]
20 | < 100 nM | Cc1n[nH]c2cc(-c3ccc(O)cc3F)c(C#N)c(-c3ccco3)c12 [Compound 81]
21 | 100 to 1000 nM | CN1CCN(c2ccc(-c3c(C#N)c(-c4ccc(O)cc4)nc4[nH]ncc34)o2)CC1 [Compound 82]
22 | < 100 nM | CN1CCN(c2ccc(-c3c(C#N)c(-c4ccc(O)cc4F)nc4[nH]ncc34)o2)CC1 [Compound 83]
23 | 100 to 1000 nM | N#Cc1c(-c2ccc(O)cc2F)nc2[nH]ncc2c1-c1ccc(CN2CCOCC2)o1 [Compound 84]
24 | 100 to 1000 nM | CN1CCN(Cc2ccc(-c3c(C#N)c(-c4ccc(O)cc4F)nc4[nH]ncc34)o2)CC1 [Compound 85]
25 | < 100 nM | N#Cc1c(-c2ccc(O)cc2F)nc2[nH]ncc2c1-c1ccc(N2CCOCC2)o1 [Compound 86]
26 | < 100 nM | Cc1n[nH]c2nc(-c3ccc(O)cc3F)c(C#N)c(-c3ccc(N4CCNCC4)cc3)c12 [Compound 88]
27 | 1000 to 10000 nM | Cc1n[nH]c2nc(-c3cc(Br)c(O)c(Br)c3F)c(C#N)c(-c3ccco3)c12 [Compound 90]
28 | < 100 nM | N#Cc1c(-c2ccc(O)cc2F)nc2[nH]ncc2c1-c1ccc(N2CCNCC2)cc1 [Compound 91]
29 | < 100 nM | Cc1ccc(-c2c(C#N)c(-c3ccc(O)cc3F)nc3[nH]ncc23)o1 [Compound 92]

Test system: karpas 299 cells
Test: Measurement of inhibition of cell proliferation (Karpas), ATPlite
Format: cell-based
Conditions: 72 hours
Description: Measurement of Inhibition of Cell Proliferation (Karpas):
The antiproliferative activities of the compounds were measured using the ATPlite technique (Perkin Elmer).
The non-adhering cells (karpas 299) are seeded in 96-well plates (300 000 cells/ml) on Day 1 at a concentration compatible with logarithmic growth for 72 hours required for evaluation of the compounds. All the cells are treated on Day 1, then placed in an incubator at 37° C. under 5% CO2 atmosphere. Cell viability is evaluated on Day 4 by assay of released ATP, characteristic of viable cells. The IC50 values are determined by non-linear regression on the basis of a sigmoid model of dose/response relationship, Hill's slope coefficient being left variable, performed using GraphPad software sequence with the supplied algorithm.

Row | IC50 | Structure (SMILES)
30 | 100 to 1000 nM | Cc1n[nH]c2nc(-c3ccc(O)cc3F)c(C#N)c(-c3ccc(N4CCNCC4)cc3)c12 [Compound 88]

Same assay, conditions: Homo sapiens, KARPAS-299, 72 h

Row | IC50 | Structure (SMILES)
31 | 1000 to 10000 nM | N#Cc1c(-c2ccc(O)cc2)nc2[nH]ncc2c1-c1ccc(O)cc1 [Compound 17]
32 | 1000 to 10000 nM | Cc1n[nH]c2nc(-c3ccc(O)cc3)c(C#N)c(-c3ccc(O)cc3)c12 [Compound 19]
33 | 100 to 1000 nM | N#Cc1c(-c2ccc(O)cc2)nc2[nH]ncc2c1-c1ccco1 [Compound 44]
34 | 1000 to 10000 nM | N#Cc1c(-c2ccc(O)cc2)nc2[nH]ncc2c1-c1ccoc1 [Compound 45]
35 | 1000 to 10000 nM | CN1CCN(Cc2ccc(-c3c(C#N)c(-c4ccc(O)cc4)nc4[nH]ncc34)cc2)CC1 [Compound 47]
36 | 1000 to 10000 nM | N#Cc1c(-c2ccc(O)cc2)nc2[nH]ncc2c1-c1nccs1 [Compound 48]
37 | 1000 to 10000 nM | N#Cc1c(-c2ccc(O)cc2)nc2[nH]ncc2c1-c1ccsc1 [Compound 50]
38 | 1000 to 10000 nM | N#Cc1c(-c2ccc(O)cc2)nc2[nH]ncc2c1-c1cccs1 [Compound 52]
39 | 1000 to 10000 nM | N#Cc1c(-c2ccc(O)cc2)nc2[nH]ncc2c1-c1ccc(CN)cc1 [Compound 53]
40 | > 10000 nM | N#Cc1c(-c2ccc(O)cc2)nc2[nH]ncc2c1-c1ccc(Cn2ccnc2)cc1 [Compound 54]
41 | 1000 to 10000 nM | N#Cc1c(-c2ccc(O)cc2)nc2[nH]ncc2c1-c1ccc(N2CCNCC2)cc1 [Compound 59]
42 | 1000 to 10000 nM | N#Cc1c(-c2ccc(O)cc2)nc2[nH]ncc2c1-c1cccc(N2CCNCC2)c1 [Compound 68]
43 | 100 to 1000 nM | N#Cc1c(-c2ccc(O)cc2F)nc2[nH]ncc2c1-c1ccco1 [Compound 75]
44 | 1000 to 10000 nM | N#Cc1c(-c2ccc(O)c(F)c2)cc2[nH]ncc2c1-c1ccco1 [Compound 76]
45 | 1000 to 10000 nM | N#Cc1c(-c2ccc(O)cc2F)nc2[nH]ncc2c1-c1ccc(CO)o1 [Compound 77]
46 | 1000 to 10000 nM | Cc1n[nH]c2nc(-c3ccc(O)cc3)c(C#N)c(-c3ccco3)c12 [Compound 78]
47 | 1000 to 10000 nM | Cc1n[nH]c2cc(-c3ccc(O)cc3F)c(C#N)c(-c3ccc(CN)o3)c12 [Compound 80]
48 | 100 to 1000 nM | Cc1n[nH]c2cc(-c3ccc(O)cc3F)c(C#N)c(-c3ccco3)c12 [Compound 81]
49 | 1000 to 10000 nM | CN1CCN(c2ccc(-c3c(C#N)c(-c4ccc(O)cc4)nc4[nH]ncc34)o2)CC1 [Compound 82]
50 | 100 to 1000 nM | CN1CCN(c2ccc(-c3c(C#N)c(-c4ccc(O)cc4F)nc4[nH]ncc34)o2)CC1 [Compound 83]
51 | 1000 to 10000 nM | N#Cc1c(-c2ccc(O)cc2F)nc2[nH]ncc2c1-c1ccc(CN2CCOCC2)o1 [Compound 84]
52 | 1000 to 10000 nM | CN1CCN(Cc2ccc(-c3c(C#N)c(-c4ccc(O)cc4F)nc4[nH]ncc34)o2)CC1 [Compound 85]
53 | 1000 to 10000 nM | N#Cc1c(-c2ccc(O)cc2F)nc2[nH]ncc2c1-c1ccc(N2CCOCC2)o1 [Compound 86]
54 | > 10000 nM | Cc1n[nH]c2nc(-c3cc(Br)c(O)c(Br)c3F)c(C#N)c(-c3ccco3)c12 [Compound 90]
55 | 1000 to 10000 nM | N#Cc1c(-c2ccc(O)cc2F)nc2[nH]ncc2c1-c1ccc(N2CCNCC2)cc1 [Compound 91]
56 | 100 to 1000 nM | Cc1ccc(-c2c(C#N)c(-c3ccc(O)cc3F)nc3[nH]ncc23)o1 [Compound 92]
